Measured values: patent US8735388B2, “Heterocyclic compounds with affinity to muscarinic receptors” (Abbvie B. V. A., priority 2007, dated 2014)
pEC50: −log10 of the molar value. Like-named read-outs stand apart in the source and are kept apart here.

What was measured:
[1] = biological target: T1, Muscarine M4 (GPCR-A-MA-ACH M4) (Homo sapiens, UniProt P08173); assay: Muscarine M4 receptor binding, 3H-4DAMP; settings: human M4, CHO cells, ligand 0.2 nM, 60 min/22° C.; for Ki: read-out: RB Musc. M4 3H-DAMP pKi (converted)
T1 construct: expressed in transfected cells; host or cells: CHO cells
T1 sequence (P08173 1-479): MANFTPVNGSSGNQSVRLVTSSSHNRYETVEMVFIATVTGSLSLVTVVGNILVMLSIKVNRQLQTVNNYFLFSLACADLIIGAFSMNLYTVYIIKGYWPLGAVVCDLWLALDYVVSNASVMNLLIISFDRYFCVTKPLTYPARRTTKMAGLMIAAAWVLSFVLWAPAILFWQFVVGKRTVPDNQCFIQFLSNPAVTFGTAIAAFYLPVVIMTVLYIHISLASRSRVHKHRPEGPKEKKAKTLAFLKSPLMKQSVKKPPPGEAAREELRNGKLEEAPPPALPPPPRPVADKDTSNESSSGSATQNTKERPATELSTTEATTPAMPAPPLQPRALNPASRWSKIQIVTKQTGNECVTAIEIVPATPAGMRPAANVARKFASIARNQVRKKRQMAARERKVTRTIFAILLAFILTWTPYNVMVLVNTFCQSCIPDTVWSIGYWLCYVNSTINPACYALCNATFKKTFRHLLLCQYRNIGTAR
Procedure: (§1) Compounds were dissolved in DMSO (10 mM) and diluted in assay buffer to test concentration. Prime testing was at 10 μM; for actives (PI, percent inhibition with respect to total and non-specific binding >40%) testing was continued at lower concentrations in 10-fold dilutions: 1 μM, 0.1 μM, etc.
(§2) Following incubation of compound with the receptor preparation (from ‘Tissue’) and the Ligand at the time and temperature indicated, the receptor preparations were rapidly filtered under vacuum through glass fibre filters; the filters were washed extensively with an ice-cold buffer using a harvester. Bound radioactivity was measured by scintillation counting using a liquid scintillation cocktail.
(§3) Results were expressed as percentage of total Ligand binding and that of Non Specific Binding, per concentration of Compound tested (duplicates); from the concentration—displacement curves IC50 values were determined by non-linear regression analysis using Hill equation curve fitting. The inhibition constants (Ki) were calculated from the Cheng-Prushoff equation Ki=IC50/(1+L/Kd), where L is the concentration of radioligand in the assay, and Kd the affinity of the radioligand for the receptor. Results were expressed as pKi's, means±SD of at least 2 separate experiments; i.e. outliers (outside+/−1 std of mean) and discrepancies were excluded.

[2] = biological target: T2, Muscarine M1 (GPCR-A-MA-ACH M1) (Homo sapiens, UniProt P11229); assay: Muscarine M1 cell-based functional assay (CHO cells, Ca2+ - FLIPR Fluorimetry); settings: human M1, CHO cells; agonist mode, reference agonist acetylcholine; read-out: Cell funct. Musc. M1 Agonism pEC50 (converted)
T2 construct: expressed in transfected cells; host or cells: CHO cells
T2 sequence (P11229 1-460): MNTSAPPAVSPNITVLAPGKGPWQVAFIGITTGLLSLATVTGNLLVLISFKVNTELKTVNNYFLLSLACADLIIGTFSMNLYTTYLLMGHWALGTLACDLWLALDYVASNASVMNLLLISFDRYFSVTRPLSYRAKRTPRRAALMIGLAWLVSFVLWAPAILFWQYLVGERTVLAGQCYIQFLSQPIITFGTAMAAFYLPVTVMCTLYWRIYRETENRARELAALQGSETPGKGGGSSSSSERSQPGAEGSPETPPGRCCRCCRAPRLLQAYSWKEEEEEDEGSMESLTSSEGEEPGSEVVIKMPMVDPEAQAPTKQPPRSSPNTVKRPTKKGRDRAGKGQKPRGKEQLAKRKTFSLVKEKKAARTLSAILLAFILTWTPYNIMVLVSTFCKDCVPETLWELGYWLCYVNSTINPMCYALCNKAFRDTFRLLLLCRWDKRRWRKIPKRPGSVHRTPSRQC

[3] = biological target: T1, Muscarine M4 (GPCR-A-MA-ACH M4); assay: Muscarine M4 receptor binding, 3H-Oxotremorine; settings: human M4, CHO cells, receptor binding, ligand 6 nM, 30 min/25° C.; for Ki: read-out: RB Musc. M4 3H-Oxotremorine pKi (converted)
Procedure: as §1, §2, §3

[4] = biological target: T1, Muscarine M4 (GPCR-A-MA-ACH M4); assay: Muscarine M4 cell-based functional assay (CHO cells, Ca2+ - Aequorin luminescence); settings: for EC50: read-out: Cell funct. Musc. M4 Agonism pEC50 (converted)
Procedure: Compounds were dissolved in DMSO (10 mM) and diluted in assay buffer to test concentration. Prime testing was at 1 μM; for actives in antagonist mode (PI, percent inhibition with respect to reference agonist and blank>30%) as well as actives in agonist mode (PS, percent stimulation with respect to reference agonist and blank>30%) testing was continued at lower concentrations in 10-fold dilutions: 0.1 μM, 0.01 μM, etc.
Cells were incubated with compound and the response indicated was measured.
The results are expressed as a percent of reference agonist values and blanks in the presence of the test compound, percent stimulation for agonist mode; for the antagonist mode (test compound in the presence of reference agonist) as percent inhibition. The EC50 values (concentration causing a half-maximal stimulation of control values), IC50 values (concentration causing a half-maximal inhibition of control values) were determined by non-linear regression analysis of the concentration-response curves using Hill equation curve fitting.

[5] = biological target: T2, Muscarine M1 (GPCR-A-MA-ACH M1); assay: Muscarine M1 receptor binding, 3H-Pirenzepine; settings: human M1, CHO cells, ligand 2 nM, 60 min/22° C.; for Ki: read-out: RB Musc. M1 3H-Pirenzepine pKi (converted)
Procedure: as §1, §2, §3

[6] = human M4, CHO cells, agonist mode, reference agonist oxotremorine

Ki [1]	EC50 [2]	Ki [3]	EC50 [4, 6]	Ki [5]	RB Musc. M4 3H-DAMP pKi [1]	RB Musc. M4 3H-Oxotremorine pKi [3]	Cell funct. Musc. M4 Agonism pEC50 [4, 6]	RB Musc. M1 3H-Pirenzepine pKi [5]	SMILES	pEC50 [4]
1580 nM	> 1000 nM	1580 nM	> 10000 nM	1580 nM	–	–	–	–	CN1CCC=C(c2n[nH]cc2C#CCCCC2CCCCC2)C1 [Compound 45E, 3-[4-(5-Cyclohexyl-pent-1-ynyl)-1H-pyrazol-3-yl]-1,2,5,6-tetrahydro-1-methylpyridine]	–
631 nM	794 nM	501 nM	1260 nM	2000 nM	–	–	–	–	CN1CCC=C(c2n[nH]cc2C#CCCCc2ccccc2)C1 [Compound 45D, 3-[4-(5-Phenyl-pent-1-ynyl)-1H-pyrazol-3-yl]-1,2,5,6-tetrahydro-1-methylpyridine]	–
–	–	–	–	–	6.5	6.8	<5.0	6.1	CN1CCC=C(c2n[nH]cc2C=Cc2cccc(F)c2)C1 [Compound 47B, 3-{-4-2[-(3-Fluor-Phenyl)-vinyl]-1H-pyrazol-3-yl}-1,2,5,6-tetrahydro-1-methylpyridine]	–
100 nM	–	158 nM	501 nM	631 nM	–	–	–	–	CCCCCCSc1conc1C1=CCCN(C)C1 [Compound 66B, 3-(4-Hexylsulfanyl-isoxazol-3-yl)-1,2,5,6-tetrahydro-1-methylpyridine]	–
39.8 nM	–	79.4 nM	> 10000 nM	251 nM	–	–	–	–	CCCCSc1conc1C1=CCCN(C)C1 [Compound 66A, 3-(4-Butylsulfanyl-isoxazol-3-yl)-1,2,5,6-tetrahydro-1-methylpyridine]	–
200 nM	–	251 nM	> 10000 nM	158 nM	–	–	–	–	CCCCSc1cc(C2=CCCN(C)C2)n[nH]1 [Compound 26, 3-(5-Butylsulfanyl-1H-pyrazol-3-yl)-1,2,5,6-tetrahydro-1-methylpyridine]	–
> 10000 nM	–	> 10000 nM	> 10000 nM	> 10000 nM	–	–	–	–	CCCC(=O)Nc1c[nH]nc1C1=CCCN(C)C1 [Compound 41]	–
398 nM	–	251 nM	> 10000 nM	501 nM	–	–	–	–	CN1CCC=C(c2n[nH]cc2SCc2ccco2)C1 [Compound 22M, 3-[4-(Furan-2-yl-methylsulfanyl)-1H-pyrazol-3-yl]-1,2,5,6-tetrahydro-1-methylpyridine]	–
501 nM	–	126 nM	> 10000 nM	794 nM	–	–	–	–	C=CCSc1c[nH]nc1C1=CCCN(C)C1 [Compound 22Q, 3-(4-Allylsulfanyl-1H-pyrazol-3-yl)-1,2,5,6-tetrahydro-1-methylpyridine]	–
5010 nM	–	3980 nM	> 10000 nM	7940 nM	–	–	–	–	CCCCNc1c[nH]nc1C1=CCCN(C)C1 [Compound 42, Butyl-[3-(1-Methyl-1,2,5,6-tetrahydro-pyridin-3-yl)-1H-pyrazol-4-yl]-amine]	–
251 nM	–	63.1 nM	> 10000 nM	398 nM	–	–	–	–	CCCCCSc1c[nH]nc1[C@@H]1CN2CCC[C@H]1C2 [Compound 60A, Endo-6-(4-pentylsulfanyl-1H-Pyrazol-3-yl)-1-azabicyclo[3.2.1]octane]	–
–	–	–	> 10000 nM	–	–	–	–	–	CCCCc1c[nH]nc1C1=CCCN(C)C1 [Compound 16, 3-(4-Butyl-1H-pyrazol-3-yl)-1,2,5,6-tetrahydro-1-methylpyridine]	–
–	–	–	–	–	–	–	–	–	O=C1CCCN1CC#CCN1CCCC1 [oxotremorine, reference compound]	7.40
3980 nM	–	2000 nM	> 10000 nM	12600 nM	–	–	–	–	CN1CCC=C(c2n[nH]cc2SCCC#N)C1 [Compound 22R, 3-[3-(1-Methyl-1,2,5,6-tetrahydro-pyridin-3-yl)-1H-pyrazol-4-ylsulfanyl]-propionitrile]	–
251 nM	–	251 nM	> 10000 nM	398 nM	–	–	–	–	CN1CCC=C(c2n[nH]cc2SCc2ccccc2)C1 [Compound 22N, 3-(4-Benzylsulfanyl-1H-pyrazol-3-yl)-1,2,5,6-tetrahydro-1-methylpyridine]	–
